The values below come from PubChem BioAssay (NCI).

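Dose response: 5 concentrations. Exposure: 48 h. Format: 96-well plates. Endpoint: linear interpolation; highest concentration if not reached. GI50 = concentration required for 50% inhibition of growth. At the TGI there is no net growth.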

Experiment in all cases: DTP human tumour cell line panel, 48 h
The subject of test [1] is BT-549 breast.
Test [2] deals with HCC-2998 colon.
The test system of test [3] is NCI/ADR-RES ovarian.
In test [4] the test system is OVCAR-3 ovarian.
Test [5] deals with OVCAR-5 ovarian.
In test [6] the test system is RXF 393 renal.
Test [7] concerns SNB-75 CNS.
The test system of test [8] is UO-31 renal.

On to `O=C(Nc1ccc(Cl)cc1)c1cc2c(cc1O)[nH]c1ccccc12`, for which the GI50 (in general, the concentration at which growth is held to half of that of the control) in test [1] is 2.29 µM; in test [2], 2 µM; in test [3], 2.87 µM; in test [4] it was 3.72 µM; in test [5], 3.72 µM; in test [6], 5.14 µM. The GI50 in test [7] was 3.23 µM; in test [8], 2.86 µM. In addition, the TGI (as a rule, the concentration giving total growth inhibition) in test [1] was found to be 6.1 µM; in test [2], 5.27 µM; in test [3], 8.93 µM; in test [4] it was 12.2 µM; in test [5], 16.2 µM; in test [6], 20.6 µM. Moreover, the TGI is 8.78 µM in test [7] and 12.9 µM in test [8].
On to `CN(C)c1ccc(C(=O)c2ccc(N(C)C)c(N)c2)cc1N`, for which the GI50 in test [1] is 8.02 µM; in test [2], 3.9 µM; in test [3], 1.13 µM; in test [4], 1.86 µM; in test [5] it was 15.8 µM; in test [6], 3.76 µM. The GI50 in test [7] was 1.05 µM; in test [8] it was 4.02 µM. Also, the TGI is > 88.2 µM in test [1]; 39.3 µM in test [2]; 12.3 µM in test [3]; 8 µM in test [4]; > 100 µM in test [5]; 18.4 µM in test [6]. The TGI in test [7] was > 23.6 µM; in test [8] it was > 67.7 µM.
As for `CN(C)C(=S)NN=C(c1ccccn1)c1ccccn1`, the GI50 in test [1] was 0.074 µM; in test [2] it was 0.0327 µM; in test [3], < 0.0208 µM; in test [4], < 0.01 µM; in test [5], 0.045 µM; in test [6], 0.138 µM. Moreover, the GI50 in test [7] is 14.3 µM; in test [8], < 0.0184 µM. The TGI in test [1] was 15.4 µM; in test [2] it was 21.2 µM; in test [3] it was 4.98 µM; in test [4] it was 30.5 µM; in test [5], 27.4 µM; in test [6] it was 13.8 µM. Moreover, the values for the TGI in test [7] and in test [8] were > 81.6 µM and 14.1 µM, respectively.
On to `O=C1c2ccccc2-c2c1c1ccc([N+](=O)[O-])cc1c(=O)n2CCNCCCNCCn1c2c(c3ccc([N+](=O)[O-])cc3c1=O)C(=O)c1ccccc1-2`, for which the GI50 in test [1] was 2.57 µM; in test [2], 0.992 µM; in test [3] it was 0.923 µM; in test [4], 0.638 µM; in test [5], 0.673 µM; in test [6], 0.389 µM. Also, the values for the GI50 in test [7] and in test [8] were 0.445 µM and 0.541 µM, respectively. Moreover, the TGI stood at 50 µM in test [1]; 13.3 µM in test [2]; 25.9 µM in test [3]; 5.19 µM in test [4]; 6.42 µM in test [5]; 13.8 µM in test [6]. Also, the figures for the TGI in test [7] and in test [8] were 2.41 µM and 6.84 µM, respectively.
Turning to `CNC(=O)c1c(NC(=O)c2cccc(C(F)(F)F)c2)sc2c1CCC(=O)C2`, the GI50 is 0.352 µM in test [1]; 0.656 µM in test [2]; 0.349 µM in test [3]; 0.448 µM in test [4]; 0.465 µM in test [5]; 0.326 µM in test [6]. Further, the GI50 is 0.575 µM in test [7] and 0.197 µM in test [8]. Also, the TGI in test [1] was found to be 2.83 µM; in test [2] it was 2.52 µM; in test [3], 1.72 µM; in test [4] it was 2.04 µM; in test [5], 2.73 µM; in test [6] it was 1.97 µM. Besides, the concentration for total growth inhibition (TGI) in test [7] is 5.27 µM; in test [8], 0.77 µM.
Consider `CCc1ccc(-c2ccc(=O)n(-c3ccc(S(N)(=O)=O)cc3)n2)cc1`, for which the GI50 is 0.916 µM in test [1]; 0.412 µM in test [3]; 0.957 µM in test [4]; > 64.4 µM in test [5]; 3.89 µM in test [6]; 2.96 µM in test [7]. For the same molecule, the GI50 in test [8] is > 100 µM. The total growth inhibition concentration (TGI) in test [1] is 21.7 µM; in test [2] it was > 100 µM; in test [3] it was 12.2 µM; in test [4], > 20.2 µM; in test [5], > 100 µM; in test [6], 31.5 µM. Further, the TGI was 28 µM in test [7] and > 100 µM in test [8].
Take `COc1cc2c(cc1OCCCOC1=C=C=C(c3ccc4c(c3)c3cc(-c5ccc(OCCCOc6cc7c(cc6OC)C(=O)N6CCC[C@H]6C=N7)cc5)ccc3n4S(=O)(=O)c3ccc(C)cc3)C=C1)N=C[C@@H]1CCCN1C2=O`: the GI50 was 1.16 µM in test [1]; 0.731 µM in test [2]; > 26.1 µM in test [3]; 0.959 µM in test [4]; 5.87 µM in test [5]; 1.17 µM in test [6]. For the same molecule, the GI50 in test [7] was 1.03 µM; in test [8] it was 3.21 µM. Besides, the TGI in test [1] is 4.59 µM; in test [2] it was 3.67 µM; in test [3], > 50 µM; in test [4] it was 2.23 µM; in test [5] it was 17.8 µM; in test [6] it was 2.59 µM. Also, the concentration for total growth inhibition (TGI) in test [7] amounted to 5.33 µM; in test [8], 11.4 µM.
For the molecule `NC(=O)C(Br)CBr` (stereo not drawn), the GI50 in test [1] was 2.39 µM; in test [2], 2.18 µM; in test [3], 2.93 µM; in test [4], 1.48 µM; in test [5], 5.73 µM; in test [6], 1.27 µM. Moreover, the GI50 in test [7] is 5.3 µM; in test [8] it was 2.55 µM. The TGI is 7.4 µM in test [1]; 4.78 µM in test [2]; > 24.1 µM in test [3]; 2.83 µM in test [4]; 13.7 µM in test [5]; 2.7 µM in test [6]. Moreover, the TGI in test [7] was determined as 19.9 µM; in test [8] it was 12.7 µM.
In the case of `COc1ccc(C(O)c2cc3c(N)c(C(=O)Nc4cccc(Cl)c4C)sc3nc2C)cc1` (stereo not drawn), the GI50 in test [1] was 0.888 µM; in test [2] it was 0.444 µM; in test [3] it was 0.915 µM; in test [4] it was 0.814 µM; in test [5], 0.932 µM; in test [6], 0.709 µM. Moreover, the values for the GI50 in test [7] and in test [8] were 0.637 µM and 0.627 µM, respectively. Besides, the TGI worked out at 1.77 µM in test [1]; 1.16 µM in test [2]; 1.84 µM in test [3]; 1.79 µM in test [4]; 1.92 µM in test [5]; 1.42 µM in test [6]. The TGI in test [7] came to 1.34 µM; in test [8] it was 1.27 µM.
